Assay results as given in patent publication US10160755B2 (Plexxikon Inc., priority 2015, dated 2018).

These molecules were tested against T1, BA/F3-FLT3-ITD + F691L cells (Homo sapiens, UniProt P36888, F691L, cells depend on it, form not given) (assay: BA/F3-FLT3-ITD + F691L cell proliferation assay (CellTiter-Glo)). Settings: BaF3 FLT3 ITD/F691L cells; read-out: Cell Activity (IC50 μM) BaF3_FLT3_ITD/F691L.
T1 sequence (P36888 1-993 F691L): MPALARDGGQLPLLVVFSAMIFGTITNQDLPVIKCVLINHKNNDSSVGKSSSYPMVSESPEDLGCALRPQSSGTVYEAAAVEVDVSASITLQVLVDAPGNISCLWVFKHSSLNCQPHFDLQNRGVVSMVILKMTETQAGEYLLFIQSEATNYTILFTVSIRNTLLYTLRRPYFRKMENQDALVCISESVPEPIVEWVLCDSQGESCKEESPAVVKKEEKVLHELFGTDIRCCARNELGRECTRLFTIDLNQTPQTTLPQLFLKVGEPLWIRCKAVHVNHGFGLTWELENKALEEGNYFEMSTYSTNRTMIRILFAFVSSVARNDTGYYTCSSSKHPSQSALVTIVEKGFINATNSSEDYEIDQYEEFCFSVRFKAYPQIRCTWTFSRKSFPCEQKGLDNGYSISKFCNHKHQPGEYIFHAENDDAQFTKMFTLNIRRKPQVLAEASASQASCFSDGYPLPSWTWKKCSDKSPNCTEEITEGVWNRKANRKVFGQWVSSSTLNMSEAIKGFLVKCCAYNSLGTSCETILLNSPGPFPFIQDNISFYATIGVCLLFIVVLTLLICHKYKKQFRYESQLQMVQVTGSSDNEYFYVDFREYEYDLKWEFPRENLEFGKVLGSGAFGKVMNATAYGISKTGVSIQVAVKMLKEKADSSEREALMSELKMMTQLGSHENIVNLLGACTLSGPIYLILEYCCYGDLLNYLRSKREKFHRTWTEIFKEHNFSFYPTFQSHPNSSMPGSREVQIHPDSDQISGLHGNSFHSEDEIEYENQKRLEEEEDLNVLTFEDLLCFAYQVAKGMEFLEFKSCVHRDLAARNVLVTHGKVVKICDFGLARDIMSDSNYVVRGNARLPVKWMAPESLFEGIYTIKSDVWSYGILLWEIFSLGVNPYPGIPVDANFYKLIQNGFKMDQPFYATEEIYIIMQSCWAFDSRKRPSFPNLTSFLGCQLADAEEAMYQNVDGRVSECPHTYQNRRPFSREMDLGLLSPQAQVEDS
Format: cell-based, murine
Method in brief: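 Murine BA/F3 cells transfected with full-length FLT3 carrying ITD plus D835Y or F691L, grown without IL-3 so growth depends on FLT3. Seeded at 1×10^4 cells/well and dosed with 8 points, 10 to 0.0046 μM, 0.2% DMSO, for three days at 37 °C. IC50 from CellTiter-Glo luminescence (ATP content).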

GI50, 0.0001 to 1 µM:
CC(C)(C)n1cnc2ccc(-c3c[nH]c4ncc(-c5ccnc(N6CCCCS6(=O)=O)c5)nc34)cc21 [P-309, 2-[4-[7-(3-tert-butylbenzimidazol-5-yl)-5H-pyrrolo[2,3-b]pyrazin-2-yl]-2-pyridyl]thiazinane 1,1-dioxide]
c1cc(-c2cnc3[nH]cc(-c4ccc5ncn(C6CCCNC6)c5c4)c3c2)cc(N2CCOCC2)c1 (stereo not shown) [P-317, 4-[3-[3-[3-(3-piperidyl)benzimidazol-5-yl]-1H-pyrrolo[2,3-b]pyridin-5-yl]phenyl]morpholine]
CC(C)(C)n1cnc2ccc(-c3c[nH]c4ncc(-c5ccnc(N6CCCS6(=O)=O)c5)nc34)cc21 [P-294, 2-[4-[7-(3-tert-butylbenzimidazol-5-yl)-5H-pyrrolo[2,3-b]pyrazin-2-yl]-2-pyridyl]-1,2-thiazolidine 1,1-dioxide]
CC(C)(C)n1cnc2ccc(-c3n[nH]c4ncc(-c5cccc(N6CCCS6(=O)=O)c5)cc34)cc21 [P-296, 2-[3-[3-(3-tert-butylbenzimidazol-5-yl)-1H-pyrazolo[3,4-b]pyridin-5-yl]phenyl]-1,2-thiazolidine 1,1-dioxide]
CCN1CCN(c2cc(-c3cnc4[nH]cc(-c5ccc6ncn(C7CCCNC7)c6c5)c4n3)ccn2)CC1 (stereo not shown) [P-327, 2-[2-(4-ethylpiperazin-1-yl)-4-pyridyl]-7-[3-(3-piperidyl)benzimidazol-5-yl]-5H-pyrrolo[2,3-b]pyrazine]
CC(C)(C)n1cnc2ccc(-c3c[nH]c4ncc(-c5ccc(N6CCCS6(=O)=O)cc5)cc34)cc21 [P-320, 2-[4-[3-(3-tert-butylbenzimidazol-5-yl)-1H-pyrrolo[2,3-b]pyridin-5-yl]phenyl]-1,2-thiazolidine 1,1-dioxide]
COc1cc(-c2cnc3[nH]cc(-c4ccc5ncn(C6CCCN(S(C)(=O)=O)C6)c5c4)c3n2)ccn1 (stereo not shown) [P-281, 2-(2-methoxy-4-pyridyl)-7-[3-(1-methylsulfonyl-3-piperidyl)benzimidazol-5-yl]-5H-pyrrolo[2,3-b]pyrazine]
